The source of these data is PubChem BioAssay (NCI).

Some test systems named below: RPMI-8226 leukemia; CCRF-CEM leukemia; K-562 leukemia; MALME-3M melanoma; UACC-257 melanoma; PC-3 prostate; MCF7 breast; T-47D breast; MDA-MB-435; UO-31 renal.
Holding throughout (assay): growth of human tumour cells (NCI), 48 h

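Method: 48-hour compound exposure of cells in 96-well plates, five concentrations, linear interpolation of endpoints. GI50: concentration for 50% inhibition of growth. The concentration for full growth arrest is given as TGI.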

As for `CCOC(=O)NC(=O)c1cn(CCNCCO)c(=O)[nH]c1=O`, the TGI in the assay with RPMI-8226 leukemia, with CCRF-CEM leukemia, in the assay on K-562 leukemia and in the assay with MALME-3M melanoma was above 100 µM throughout.

Regarding `OCCCNc1nc(=S)[nH]c2[nH]ncc12`, the GI50 is 68 µM with UACC-257 melanoma; 70.2 µM with PC-3 prostate; 29.8 µM in the assay on MCF7 breast; 80.8 µM in the assay on RPMI-8226 leukemia; 34.7 µM in the assay on CCRF-CEM leukemia; 44.5 µM in the assay on K-562 leukemia. In addition, the GI50 is 45 µM with T-47D breast, 48.3 µM in the assay with MALME-3M melanoma, 45.5 µM in the assay with MDA-MB-435 and 44.1 µM with UO-31 renal. The TGI with UACC-257 melanoma was above 100 µM; with PC-3 prostate it was above 100 µM; in the assay on MCF7 breast, 81.3 µM; with RPMI-8226 leukemia, above 100 µM; in the assay with CCRF-CEM leukemia, above 100 µM; with K-562 leukemia it was above 100 µM. Also, the TGI in the assay on T-47D breast, with MALME-3M melanoma, in the assay with MDA-MB-435 and with UO-31 renal was above 100 µM in each case.

For `COc1ccc(CC2CCc3nc(N)nc(N)c3C2)cc1OC` (centres undefined), the TGI in the assay with UACC-257 melanoma is above 54.4 µM; in the assay on PC-3 prostate, above 100 µM; in the assay on MCF7 breast, above 44.4 µM; in the assay with RPMI-8226 leukemia it was above 100 µM; in the assay with K-562 leukemia, above 100 µM; in the assay on T-47D breast it was above 82.6 µM. Further, the TGI was 23.2 µM with MALME-3M melanoma, above 100 µM in the assay with MDA-MB-435 and above 100 µM with UO-31 renal.

On to `c1nc(N2CC2)c2cnn(C3CCCCO3)c2n1` (centres undefined), for which the TGI with UACC-257 melanoma, in the assay on PC-3 prostate, with MCF7 breast, in the assay with RPMI-8226 leukemia, with CCRF-CEM leukemia and with K-562 leukemia was above 100 µM in each case. Moreover, the TGI with T-47D breast, in the assay on MALME-3M melanoma, with MDA-MB-435 and in the assay on UO-31 renal was above 100 µM in each case.

`O=C(N/N=C/C=C/c1ccccc1)[C@H](O)[C@@H](O)C(=O)N/N=C/C=C/c1ccccc1`: the TGI with UACC-257 melanoma, with RPMI-8226 leukemia, in the assay with CCRF-CEM leukemia, in the assay with K-562 leukemia, in the assay with MALME-3M melanoma and in the assay with UO-31 renal was above 100 µM in each case.
